Source: article PMC6437697 (Journal of Medicinal Chemistry, 2019)

Key:
Assay in all cases: KINOMEscan
Assay type in all cases: binding
PIK4CB = target: T1, PIK4CB (Homo sapiens, UniProt Q9UBF8); settings: for remaining binding at 1 µM: read-out: % control activity remaining
T1 construct: purchased Eurofins DiscoverX KINOMEscan

TTK = target: T2, TTK (Homo sapiens, UniProt P33981); settings: read-out: % control activity remaining
T2 construct: purchased Eurofins DiscoverX KINOMEscan
T2 sequence (P33981 1-857): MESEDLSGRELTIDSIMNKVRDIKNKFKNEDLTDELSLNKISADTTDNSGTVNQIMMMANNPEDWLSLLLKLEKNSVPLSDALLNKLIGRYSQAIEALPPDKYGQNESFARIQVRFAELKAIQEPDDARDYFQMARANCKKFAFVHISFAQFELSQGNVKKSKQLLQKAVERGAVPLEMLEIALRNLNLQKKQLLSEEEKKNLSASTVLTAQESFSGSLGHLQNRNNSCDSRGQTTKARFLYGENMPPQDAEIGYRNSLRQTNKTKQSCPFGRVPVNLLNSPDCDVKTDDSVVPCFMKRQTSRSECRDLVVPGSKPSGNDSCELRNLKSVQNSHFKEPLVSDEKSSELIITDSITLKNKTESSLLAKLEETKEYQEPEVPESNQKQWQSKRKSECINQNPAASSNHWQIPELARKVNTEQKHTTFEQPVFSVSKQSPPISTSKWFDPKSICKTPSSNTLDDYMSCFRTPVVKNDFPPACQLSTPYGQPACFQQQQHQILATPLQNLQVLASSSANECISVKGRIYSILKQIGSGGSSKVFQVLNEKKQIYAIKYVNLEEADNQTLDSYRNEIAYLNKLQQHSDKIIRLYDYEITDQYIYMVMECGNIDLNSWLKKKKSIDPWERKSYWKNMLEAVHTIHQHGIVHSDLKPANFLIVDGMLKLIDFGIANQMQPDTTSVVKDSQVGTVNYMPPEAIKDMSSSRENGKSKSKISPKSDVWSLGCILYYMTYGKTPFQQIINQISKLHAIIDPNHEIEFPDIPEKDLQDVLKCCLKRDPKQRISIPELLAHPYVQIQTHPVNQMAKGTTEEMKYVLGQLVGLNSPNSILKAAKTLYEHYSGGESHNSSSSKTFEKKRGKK

JNK2 = target: T3, JNK2 (Homo sapiens, UniProt P45984); settings: read-out: % control activity remaining
T3 construct: purchased Eurofins DiscoverX KINOMEscan
T3 sequence (P45984 whole entry): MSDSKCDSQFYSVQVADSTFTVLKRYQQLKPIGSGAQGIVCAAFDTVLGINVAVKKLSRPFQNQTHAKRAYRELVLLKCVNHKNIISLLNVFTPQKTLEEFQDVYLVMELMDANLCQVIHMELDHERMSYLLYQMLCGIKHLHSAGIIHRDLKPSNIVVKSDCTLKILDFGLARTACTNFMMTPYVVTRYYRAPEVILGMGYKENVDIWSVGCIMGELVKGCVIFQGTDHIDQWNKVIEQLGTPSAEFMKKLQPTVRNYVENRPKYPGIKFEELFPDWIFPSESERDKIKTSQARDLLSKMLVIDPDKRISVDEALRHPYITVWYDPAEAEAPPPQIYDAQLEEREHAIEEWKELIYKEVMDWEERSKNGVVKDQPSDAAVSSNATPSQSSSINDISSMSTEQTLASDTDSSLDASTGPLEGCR

SGK = target: T4, SGK (Homo sapiens, UniProt O00141); settings: read-out: % control activity remaining
T4 construct: purchased Eurofins DiscoverX KINOMEscan
T4 sequence (O00141 1-431): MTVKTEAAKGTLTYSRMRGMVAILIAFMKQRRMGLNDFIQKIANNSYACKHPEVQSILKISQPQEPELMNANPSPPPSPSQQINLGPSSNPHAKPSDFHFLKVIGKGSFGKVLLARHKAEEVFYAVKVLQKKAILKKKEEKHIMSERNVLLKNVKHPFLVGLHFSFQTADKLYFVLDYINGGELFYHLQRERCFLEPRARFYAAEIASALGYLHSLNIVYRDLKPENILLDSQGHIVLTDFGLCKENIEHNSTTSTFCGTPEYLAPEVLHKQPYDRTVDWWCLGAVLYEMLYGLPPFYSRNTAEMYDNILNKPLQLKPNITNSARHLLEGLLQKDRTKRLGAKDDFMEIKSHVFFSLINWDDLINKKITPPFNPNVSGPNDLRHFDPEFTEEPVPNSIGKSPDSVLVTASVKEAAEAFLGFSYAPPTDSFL

AURKA = target: T5, AURKA (Homo sapiens, UniProt O14965); settings: read-out: % control activity remaining
T5 construct: purchased Eurofins DiscoverX KINOMEscan
T5 sequence (O14965 1-403): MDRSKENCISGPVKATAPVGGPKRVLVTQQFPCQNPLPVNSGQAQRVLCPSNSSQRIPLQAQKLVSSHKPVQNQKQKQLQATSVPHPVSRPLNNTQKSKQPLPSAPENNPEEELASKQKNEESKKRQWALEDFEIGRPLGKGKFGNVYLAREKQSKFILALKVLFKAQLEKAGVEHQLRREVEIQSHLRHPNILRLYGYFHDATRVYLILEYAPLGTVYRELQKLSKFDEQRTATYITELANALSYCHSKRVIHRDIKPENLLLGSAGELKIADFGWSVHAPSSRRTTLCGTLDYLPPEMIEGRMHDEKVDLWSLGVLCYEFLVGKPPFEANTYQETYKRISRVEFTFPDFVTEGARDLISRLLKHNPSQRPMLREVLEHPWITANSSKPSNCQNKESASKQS

TNNI3K = target: T6, TNNI3K (Homo sapiens, UniProt Q59H18); settings: read-out: % control activity remaining
T6 construct: purchased Eurofins DiscoverX KINOMEscan
T6 sequence (Q59H18 1-835): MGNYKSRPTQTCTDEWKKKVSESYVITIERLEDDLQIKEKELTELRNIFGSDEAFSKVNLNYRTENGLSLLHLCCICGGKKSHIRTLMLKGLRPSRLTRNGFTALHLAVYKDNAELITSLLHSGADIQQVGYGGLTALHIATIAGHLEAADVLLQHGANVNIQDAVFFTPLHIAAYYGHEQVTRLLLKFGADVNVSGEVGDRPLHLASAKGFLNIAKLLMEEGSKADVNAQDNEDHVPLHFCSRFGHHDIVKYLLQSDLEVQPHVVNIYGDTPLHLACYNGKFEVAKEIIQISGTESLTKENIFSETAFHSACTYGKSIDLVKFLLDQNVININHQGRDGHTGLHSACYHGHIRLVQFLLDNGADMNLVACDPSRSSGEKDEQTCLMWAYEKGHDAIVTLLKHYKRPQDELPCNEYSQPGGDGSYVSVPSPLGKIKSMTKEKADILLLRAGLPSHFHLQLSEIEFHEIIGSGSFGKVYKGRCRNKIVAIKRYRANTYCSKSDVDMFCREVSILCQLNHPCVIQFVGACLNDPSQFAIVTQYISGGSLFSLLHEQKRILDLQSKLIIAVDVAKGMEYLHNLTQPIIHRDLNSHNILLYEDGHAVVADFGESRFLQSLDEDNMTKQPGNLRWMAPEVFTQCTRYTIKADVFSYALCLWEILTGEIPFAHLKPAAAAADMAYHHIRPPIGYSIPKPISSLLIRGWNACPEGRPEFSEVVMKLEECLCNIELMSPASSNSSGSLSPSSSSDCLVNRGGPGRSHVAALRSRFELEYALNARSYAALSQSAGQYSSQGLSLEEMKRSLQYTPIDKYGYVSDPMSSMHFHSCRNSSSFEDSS

KIT-autoinhibited = target: T7, KIT-autoinhibited (Homo sapiens, UniProt P10721); settings: read-out: % control activity remaining
T7 construct: purchased Eurofins DiscoverX KINOMEscan
T7 sequence (P10721 26-976): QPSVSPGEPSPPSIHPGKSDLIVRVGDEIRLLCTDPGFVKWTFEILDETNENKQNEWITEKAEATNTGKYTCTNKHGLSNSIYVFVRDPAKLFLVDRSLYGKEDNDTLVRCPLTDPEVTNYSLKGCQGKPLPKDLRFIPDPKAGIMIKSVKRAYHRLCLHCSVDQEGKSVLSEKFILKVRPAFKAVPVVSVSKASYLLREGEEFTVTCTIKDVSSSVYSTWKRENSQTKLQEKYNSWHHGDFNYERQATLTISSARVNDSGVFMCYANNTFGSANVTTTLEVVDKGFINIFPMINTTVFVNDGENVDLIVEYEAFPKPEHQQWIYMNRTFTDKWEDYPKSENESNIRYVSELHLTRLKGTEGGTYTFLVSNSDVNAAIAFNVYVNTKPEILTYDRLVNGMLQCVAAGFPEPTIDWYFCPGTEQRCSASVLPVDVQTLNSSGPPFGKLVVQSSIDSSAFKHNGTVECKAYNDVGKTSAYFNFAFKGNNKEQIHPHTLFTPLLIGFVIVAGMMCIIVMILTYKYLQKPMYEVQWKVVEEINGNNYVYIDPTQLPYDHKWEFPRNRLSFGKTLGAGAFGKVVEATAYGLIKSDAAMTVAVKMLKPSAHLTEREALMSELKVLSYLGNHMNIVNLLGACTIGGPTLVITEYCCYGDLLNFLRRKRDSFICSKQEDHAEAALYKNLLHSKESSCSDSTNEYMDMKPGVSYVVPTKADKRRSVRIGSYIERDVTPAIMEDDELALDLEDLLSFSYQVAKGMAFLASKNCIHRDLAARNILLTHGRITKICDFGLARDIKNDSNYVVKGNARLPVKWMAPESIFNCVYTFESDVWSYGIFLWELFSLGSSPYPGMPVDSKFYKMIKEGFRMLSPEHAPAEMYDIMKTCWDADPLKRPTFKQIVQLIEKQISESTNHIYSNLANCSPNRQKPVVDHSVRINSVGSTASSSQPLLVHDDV

CAMK1G = target: T8, CAMK1G (Homo sapiens, UniProt Q96NX5); settings: read-out: % control activity remaining
T8 construct: purchased Eurofins DiscoverX KINOMEscan
T8 sequence (Q96NX5 whole entry): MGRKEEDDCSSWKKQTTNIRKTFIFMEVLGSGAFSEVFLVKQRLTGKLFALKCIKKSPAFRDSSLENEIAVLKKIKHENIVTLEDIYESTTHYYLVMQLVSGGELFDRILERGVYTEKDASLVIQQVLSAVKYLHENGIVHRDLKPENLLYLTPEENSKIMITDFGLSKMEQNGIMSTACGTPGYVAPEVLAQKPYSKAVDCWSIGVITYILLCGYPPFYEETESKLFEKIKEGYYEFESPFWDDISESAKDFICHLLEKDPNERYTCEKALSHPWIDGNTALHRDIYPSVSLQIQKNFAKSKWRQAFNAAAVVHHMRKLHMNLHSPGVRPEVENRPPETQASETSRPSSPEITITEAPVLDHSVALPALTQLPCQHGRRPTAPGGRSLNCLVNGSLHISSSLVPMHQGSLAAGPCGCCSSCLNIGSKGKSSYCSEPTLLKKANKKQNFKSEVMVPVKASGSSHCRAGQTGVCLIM

BMPR1A = target: T9, BMPR1A (Homo sapiens, UniProt P36894); settings: read-out: % control activity remaining
T9 construct: purchased Eurofins DiscoverX KINOMEscan
T9 sequence (P36894 24-532): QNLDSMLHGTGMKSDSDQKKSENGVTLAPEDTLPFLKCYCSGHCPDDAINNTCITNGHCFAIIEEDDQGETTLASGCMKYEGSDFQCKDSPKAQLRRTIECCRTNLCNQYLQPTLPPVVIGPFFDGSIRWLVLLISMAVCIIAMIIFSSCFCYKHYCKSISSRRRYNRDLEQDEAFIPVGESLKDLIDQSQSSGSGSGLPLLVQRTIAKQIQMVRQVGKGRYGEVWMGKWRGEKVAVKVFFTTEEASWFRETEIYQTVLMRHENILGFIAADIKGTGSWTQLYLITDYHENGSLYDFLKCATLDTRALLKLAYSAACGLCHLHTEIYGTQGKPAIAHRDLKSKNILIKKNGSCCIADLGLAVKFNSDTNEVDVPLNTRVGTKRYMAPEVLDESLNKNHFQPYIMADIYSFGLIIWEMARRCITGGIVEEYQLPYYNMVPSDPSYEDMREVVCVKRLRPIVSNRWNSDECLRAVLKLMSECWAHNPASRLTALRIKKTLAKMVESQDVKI

KIT(D816H) = target: T10, KIT(D816H) (Homo sapiens, UniProt P10721, D816H); settings: read-out: % control activity remaining
T10 construct: purchased Eurofins DiscoverX KINOMEscan
T10 sequence (P10721 26-976 D816H): as the sequence (P10721 26-976) above, with D791H counted along it

T1 sequence (Q9UBF8 whole entry): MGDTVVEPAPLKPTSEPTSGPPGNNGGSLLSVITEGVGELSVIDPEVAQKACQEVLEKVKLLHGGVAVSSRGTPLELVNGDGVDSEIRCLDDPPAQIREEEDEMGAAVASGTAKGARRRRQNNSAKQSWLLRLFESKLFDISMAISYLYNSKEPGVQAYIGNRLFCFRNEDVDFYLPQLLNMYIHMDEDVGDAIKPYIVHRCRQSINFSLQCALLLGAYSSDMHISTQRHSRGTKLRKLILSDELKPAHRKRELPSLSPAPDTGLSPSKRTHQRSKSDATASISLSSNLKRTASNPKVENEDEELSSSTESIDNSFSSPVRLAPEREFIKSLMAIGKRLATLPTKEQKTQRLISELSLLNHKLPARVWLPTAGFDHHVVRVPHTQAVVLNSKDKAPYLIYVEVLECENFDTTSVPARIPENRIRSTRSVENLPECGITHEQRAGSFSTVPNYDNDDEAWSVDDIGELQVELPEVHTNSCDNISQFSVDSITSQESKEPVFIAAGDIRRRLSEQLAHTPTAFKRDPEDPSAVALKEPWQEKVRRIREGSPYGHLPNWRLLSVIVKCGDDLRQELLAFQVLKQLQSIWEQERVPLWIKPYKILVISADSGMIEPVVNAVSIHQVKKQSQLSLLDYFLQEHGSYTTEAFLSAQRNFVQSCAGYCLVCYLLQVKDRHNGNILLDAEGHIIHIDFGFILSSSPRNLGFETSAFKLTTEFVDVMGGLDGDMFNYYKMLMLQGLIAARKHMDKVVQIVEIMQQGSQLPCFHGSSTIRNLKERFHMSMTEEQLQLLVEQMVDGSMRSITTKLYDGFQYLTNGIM

## Clc1cc(NCC2CC2)c2ncc(-c3ccc4[nH]ncc4c3)n2n1 [compound 2, 6-Chloro-N-(cyclopropylmethyl)-3-(1H-indazol-5-yl)imidazo[1,2-b]pyridazin-8-amine]
PIK4CB
  remaining binding at 1 µM: 3.3%
PIK4CB; read-out: Probe binding inhibited
  inhibition at 1 µM: > 90%
TTK
  remaining binding at 1 µM: 77%
JNK2
  remaining binding at 1 µM: 91%
SGK
  remaining binding at 1 µM: 91%
AURKA
  remaining binding at 1 µM: 90%
TNNI3K
  remaining binding at 1 µM: 97%
KIT-autoinhibited
  remaining binding at 1 µM: 82%
CAMK1G
  remaining binding at 1 µM: 76%
BMPR1A
  remaining binding at 1 µM: 95%
KIT(D816H)
  remaining binding at 1 µM: 100%

## O=C(CN1CCOCC1)N[C@H]1CC[C@H](Nc2cc(Cl)nn3c(-c4ccc5[nH]ncc5c4)cnc23)CC1 [compound 26]
PIK4CB
  remaining binding at 1 µM: 21%
TTK
  remaining binding at 1 µM: 54%
JNK2
  remaining binding at 1 µM: 80%
SGK
  remaining binding at 1 µM: 94%
AURKA
  remaining binding at 1 µM: 98%
TNNI3K
  remaining binding at 1 µM: 100%
KIT-autoinhibited
  remaining binding at 1 µM: 34%
CAMK1G
  remaining binding at 1 µM: 51%
BMPR1A
  remaining binding at 1 µM: 86%
KIT(D816H)
  remaining binding at 1 µM: 63%

## CN1CCC(CNc2cc(Cl)nn3c(-c4cc5nc(Nc6ccccc6)[nH]c5cc4F)cnc23)CC1 [compound 31, 6-Chloro-3-(6-fluoro-2-(phenylamino)-1H-benzo[d]imidazol-5-yl)-N-((1-methylpiperidin-4-yl)methyl)imidazo[1,2-b]pyridazin-8-amine]
PIK4CB
  remaining binding at 1 µM: 73%
TTK
  remaining binding at 1 µM: 90%
JNK2
  remaining binding at 1 µM: 75%
SGK
  remaining binding at 1 µM: 76%
AURKA
  remaining binding at 1 µM: 75%
TNNI3K
  remaining binding at 1 µM: 100%
KIT-autoinhibited
  remaining binding at 1 µM: 98%
CAMK1G
  remaining binding at 1 µM: 100%
BMPR1A
  remaining binding at 1 µM: 100%
KIT(D816H)
  remaining binding at 1 µM: 96%
